In patent US12637473B2, “MDM2 protein degraders” (THE REGENTS OF THE UNIVERSITY OF MICHIGAN, priority 2016, dated 2026):
pIC50: −log10 of the molar value.

Test system: RS4; 11 cell line
Assay: CellTiter-Glo Luminescent Cell Viability Assay, cell growth inhibition
Format: cell-based
Settings: Homo sapiens, 96 h, 4 days
Experimental: Cell growth inhibitory activity of representative MDM2 protein degraders was determined using CellTiter-Glo® Luminescent Cell Viability Assay. Cells were seeded in 384-well white opaque cell culture plates at a density of 2,000 cells/well with serially diluted compounds and incubated at 37° C. in an atmosphere of 95% air and 5% CO2 for 4 days. Cell viability was determined using the CellTiter-Glo® Luminescent Cell Viability Assay Kit (Promega, Madison, WI) according to the manufacture's instruction. Briefly, a volume of CellTiter-Glo® Reagent equal to the volume of cell culture medium was added to each well, and then the plates were incubated at room temperature for 10-20 minutes. The luminescent signal was measured using a Tecan Infinite M1000 multimode microplate reader (Tecan, Morrisville, NC). The half maximal inhibitory concentration (IC50) was calculated using the GraphPad Prism 5 software (GraphPad Software, La Jolla, CA). Cpd. […] The structure of Cpd.

Row | Compound | pIC50
1 | COc1cc(C(=O)NCCCOCCOCCOCCCNc2cccc3c2C(=O)N(C2CCC(=O)NC2=O)C3=O)ccc1NC(=O)[C@@H]1N[C@@H](CC(C)(C)C)[C@](C#N)(c2ccc(Cl)cc2F)[C@H]1c1cccc(Cl)c1F (stereo partly drawn) [Cpd. No. 58, (2R,3S,4R,5S)-3-(3-chloro-2-fluorophenyl)-4-(4-chloro-2-fluorophenyl)-4-cyano-N-(4-((3-(2-(2-(3-((2-(2,6-dioxopiperidin-3-yl)-1,3-dioxoisoindolin-4-yl)amino)propoxy)ethoxy)ethoxy)propyl)carbamoyl)-2-methoxyphenyl)-5-neopentylpyrrolidine-2-carboxamide] | 7.85
2 | O=C1CCC(N2C(=O)c3cccc(NCCCOCCOCCOCCCNC(=O)c4ccc(NC(=O)[C@@H]5NC6(CCCCC6)[C@@]6(C(=O)Nc7cc(Cl)ccc76)[C@H]5c5cccc(Cl)c5F)nc4)c3C2=O)C(=O)N1 (stereo partly drawn) [Cpd. No. 25, (3′R,4'S,5′R)-6″-chloro-4′-(3-chloro-2-fluorophenyl)-N-(5-((3-(2-(2-(3-((2-(2,6-dioxopiperidin-3-yl)-1,3-dioxoisoindolin-4-yl)amino)propoxy)ethoxy)ethoxy)propyl)carbamoyl)pyridin-2-yl)-2″-oxodispiro[cyclohexane-1,2′-pyrrolidine-3′,3″-indoline]-5′-carboxamide] | 8.13
3 | O=C1CCC(N2C(=O)c3cccc(NCCCOCCOCCOCCCNC(=O)c4ccc(NC(=O)[C@@H]5NC6(CCCCC6)[C@@]6(C(=O)Nc7cc(Cl)ccc76)[C@H]5c5cccc(Cl)c5F)cn4)c3C2=O)C(=O)N1 (stereo partly drawn) [Cpd. No. 27, (3′R,4'S,5′R)-6″-chloro-4′-(3-chloro-2-fluorophenyl)-N-(6-((3-(2-(2-(3-((2-(2,6-dioxopiperidin-3-yl)-1,3-dioxoisoindolin-4-yl)amino)propoxy)ethoxy)ethoxy)propyl)carbamoyl)pyridin-3-yl)-2″-oxodispiro[cyclohexane-1,2′-pyrrolidine-3′,3″-indoline]-5′-carboxamide] | 8.34
4 | COc1cc(C(=O)NCCOCCOCCNc2cccc3c2C(=O)N(C2CCC(=O)NC2=O)C3=O)ccc1NC(=O)[C@@H]1N[C@@H](CC(C)(C)C)[C@](C#N)(c2ccc(Cl)cc2F)[C@H]1c1cccc(Cl)c1F (stereo partly drawn) [Cpd. No. 57, (2R,3S,4R,5S)-3-(3-chloro-2-fluorophenyl)-4-(4-chloro-2-fluorophenyl)-4-cyano-N-(4-((2-(2-(2-((2-(2,6-dioxopiperidin-3-yl)-1,3-dioxoisoindolin-4-yl)amino)ethoxy)ethoxy)ethyl)carbamoyl)-2-methoxyphenyl)-5-neopentylpyrrolidine-2-carboxamide] | 7.89
5 | O=C1CCC(N2Cc3c(NCc4cn(CCCNC(=O)c5ccc(NC(=O)[C@@H]6NC7(CCCCC7)[C@@]7(C(=O)Nc8cc(Cl)ccc87)[C@H]6c6cccc(Cl)c6F)cc5)cn4)cccc3C2=O)C(=O)N1 (stereo partly drawn) [Cpd. No. 39, (3′R,4'S,5′R)-6″-chloro-4′-(3-chloro-2-fluorophenyl)-N-(4-((3-(4-(((2-(2,6-dioxopiperidin-3-yl)-1-oxoisoindolin-4-yl)amino)methyl)-1H-imidazol-1-yl)propyl)carbamoyl)phenyl)-2″-oxodispiro[cyclohexane-1,2′-pyrrolidine-3′,3″-indoline]-5′-carboxamide] | 8.82
6 | CCN1[C@@H](C(=O)NC23CCC(C(=O)NCCOCCOCCNC(=O)COc4cccc5c4C(=O)N(C4CCC(=O)NC4=O)C5=O)(CC2)CC3)[C@H](c2cccc(Cl)c2F)[C@]2(C(=O)Nc3cc(Cl)ccc32)C12CCCCC2 (stereo partly drawn) [Cpd. No. 45, (3′R,4'S,5′R)-6″-chloro-4′-(3-chloro-2-fluorophenyl)-N-(4-((2-(2-(2-(2-((2-(2,6-dioxopiperidin-3-yl)-1,3-dioxoisoindolin-4-yl)oxy)acetamido)ethoxy)ethoxy)ethyl)carbamoyl)bicyclo[2.2.2]octan-1-yl)-1′-ethyl-2″-oxodispiro[cyclohexane-1,2′-pyrrolidine-3′,3″-indoline]-5′-carboxamide] | 7.46
7 | Cc1ncsc1-c1ccc(CNC(=O)[C@@H]2C[C@@H](O)CN2C(=O)[C@@H](NC(=O)CCOCCOCCOCCNC(=O)c2ccc(NC(=O)[C@@H]3NC4(CCCCC4)[C@@]4(C(=O)Nc5cc(Cl)ccc54)[C@H]3c3cccc(Cl)c3F)cc2)C(C)(C)C)cc1 [compound 43] | 6.35
8 | Cc1ncsc1-c1ccc(CNC(=O)[C@@H]2C[C@@H](O)CN2C(=O)[C@@H](NC(=O)CCCCNC(=O)c2ccc(NC(=O)[C@@H]3NC4(CCCCC4)[C@@]4(C(=O)Nc5cc(Cl)ccc54)[C@H]3c3cccc(Cl)c3F)cc2)C(C)(C)C)cc1 [compound 41] | 6.00

Second part, the molecule after the results:

Row | pIC50 | Compound
9 | 8.54 | O=C1CCC(N2Cc3c(CCCOCCNC(=O)c4ccc(NC(=O)[C@@H]5NC6(CCCCC6)[C@@]6(C(=O)Nc7cc(Cl)ccc76)[C@H]5c5cccc(Cl)c5F)cc4)cccc3C2=O)C(=O)N1 (stereo partly drawn) [Cpd. No. 33, (3′R,4'S,5′R)-6″-chloro-4′-(3-chloro-2-fluorophenyl)-N-(4-((2-(3-(2-(2,6-dioxopiperidin-3-yl)-1-oxoisoindolin-4-yl)propoxy)ethyl)carbamoyl)phenyl)-2″-oxodispiro[cyclohexane-1,2′-pyrrolidine-3′,3″-indoline]-5′-carboxamide]
10 | 7.43 | O=C1CCC(N2C(=O)c3cccc(CCCOCCOCCNC(=O)c4ccc(NC(=O)[C@@H]5NC6(CCCCC6)[C@@]6(C(=O)Nc7cc(Cl)ccc76)[C@H]5c5cccc(Cl)c5F)cc4)c3C2=O)C(=O)N1 (stereo partly drawn) [Cpd. No. 36, (3′R,4'S,5′R)-6″-chloro-4′-(3-chloro-2-fluorophenyl)-N-(4-((2-(2-(3-(2-(2,6-dioxopiperidin-3-yl)-1,3-dioxoisoindolin-4-yl)propoxy)ethoxy)ethyl)carbamoyl)phenyl)-2″-oxodispiro[cyclohexane-1,2′-pyrrolidine-3′,3″-indoline]-5′-carboxamide]
11 | 7.34 | O=C1CCC(N2C(=O)c3cccc(CCCOCCOCCOCCNC(=O)c4ccc(NC(=O)[C@@H]5NC6(CCCCC6)[C@@]6(C(=O)Nc7cc(Cl)ccc76)[C@H]5c5cccc(Cl)c5F)cc4)c3C2=O)C(=O)N1 (stereo partly drawn) [Cpd. No. 38, (3′R,4'S,5′R)-6″-chloro-4′-(3-chloro-2-fluorophenyl)-N-(4-((2-(2-(2-(3-(2-(2,6-dioxopiperidin-3-yl)-1,3-dioxoisoindolin-4-yl)propoxy)ethoxy)ethoxy)ethyl)carbamoyl)phenyl)-2″-oxodispiro[cyclohexane-1,2′-pyrrolidine-3′,3″-indoline]-5′-carboxamide]
12 | 7.92 | O=C1CCC(N2C(=O)c3cccc(NCCCCCNC(=O)c4ccc(NC(=O)[C@@H]5NC6(CCCCC6)[C@@]6(C(=O)Nc7cc(Cl)ccc76)[C@H]5c5cccc(Cl)c5F)cc4)c3C2=O)C(=O)N1 (stereo partly drawn) [Cpd. No. 10, (3′R,4'S,5′R)-6″-chloro-4′-(3-chloro-2-fluorophenyl)-N-(4-((5-((2-(2,6-dioxopiperidin-3-yl)-1,3-dioxoisoindolin-4-yl)amino)pentyl)carbamoyl)phenyl)-2″-oxodispiro[cyclohexane-1,2′-pyrrolidine-3′,3″-indoline]-5′-carboxamide]
13 | 8.10 | O=C1CCC(N2C(=O)c3cccc(NCCOCCOCCNC(=O)c4ccc(NC(=O)[C@@H]5NC6(CCCCC6)[C@@]6(C(=O)Nc7cc(Cl)ccc76)[C@H]5c5cccc(Cl)c5F)cn4)c3C2=O)C(=O)N1 (stereo partly drawn) [Cpd. No. 26, (3′R,4'S,5′R)-6″-chloro-4′-(3-chloro-2-fluorophenyl)-N-(6-((2-(2-(2-((2-(2,6-dioxopiperidin-3-yl)-1,3-dioxoisoindolin-4-yl)amino)ethoxy)ethoxy)ethyl)carbamoyl)pyridin-3-yl)-2″-oxodispiro[cyclohexane-1,2′-pyrrolidine-3′,3″-indoline]-5′-carboxamide]
14 | 8.82 | CC1(C)CCC2(CC1)N[C@@H](C(=O)Nc1ccc(C(=O)NCCOCCOCCNc3cccc4c3C(=O)N(C3CCC(=O)NC3=O)C4=O)cc1)[C@H](c1cccc(Cl)c1F)[C@]21C(=O)Nc2cc(Cl)ccc21 (stereo partly drawn) [Cpd. No. 52, (3′R,4'S,5′R)-6″-chloro-4′-(3-chloro-2-fluorophenyl)-N-(4-((2-(2-(2-((2-(2,6-dioxopiperidin-3-yl)-1,3-dioxoisoindolin-4-yl)amino)ethoxy)ethoxy)ethyl)carbamoyl)phenyl)-4,4-dimethyl-2″-oxodispiro[cyclohexane-1,2′-pyrrolidine-3′,3″-indoline]-5′-carboxamide]
15 | 7.75 | O=C1CCC(N2C(=O)c3cccc(CCCOCCNC(=O)c4ccc(NC(=O)[C@@H]5NC6(CCCCC6)[C@@]6(C(=O)Nc7cc(Cl)ccc76)[C@H]5c5cccc(Cl)c5F)cc4)c3C2=O)C(=O)N1 (stereo partly drawn) [Cpd. No. 34, (3′R,4'S,5′R)-6″-chloro-4′-(3-chloro-2-fluorophenyl)-N-(4-((2-(3-(2-(2,6-dioxopiperidin-3-yl)-1,3-dioxoisoindolin-4-yl)propoxy)ethyl)carbamoyl)phenyl)-2″-oxodispiro[cyclohexane-1,2′-pyrrolidine-3′,3″-indoline]-5′-carboxamide]
16 | 8.74 | O=C1CCC(N2Cc3c(CCCCCNC(=O)c4ccc(NC(=O)[C@@H]5NC6(CCCCC6)[C@@]6(C(=O)Nc7cc(Cl)ccc76)[C@H]5c5cccc(Cl)c5F)cc4)cccc3C2=O)C(=O)N1 (stereo partly drawn) [Cpd. No. 31, (3′R,4'S,5′R)-6″-chloro-4′-(3-chloro-2-fluorophenyl)-N-(4-((5-(2-(2,6-dioxopiperidin-3-yl)-1-oxoisoindolin-4-yl)pentyl)carbamoyl)phenyl)-2″-oxodispiro[cyclohexane-1,2′-pyrrolidine-3′,3″-indoline]-5′-carboxamide]
